Measured values reported in patent US10717946B2, “Water soluble essential oils and their use” (KIMBERLY-CLARK WORLDWIDE, INC., priority 2012, dated 2020).
Read-outs that look alike come from different tables or passages of the source.

System: C. albicans SC5314
Type: cell-based, Candida albicans
Protocol: Based on the results in FIG. 3, single cell suspensions of SC5314 was prepared as follows. Stock culture of C. albicans SC5314 was streaked onto YPD agar (YPDA) and incubated at 30° C. overnight. Single colonies were subcultured in YPD broth (YPDB) and incubated at 30° C., 200 rpm overnight. Overnight culture in YPDB was subcultured in YPD broth again and incubated at 30° C., 200 rpm 48 h. Cells were collected by centrifugation (4000 g 10 min) at 4° C., washed three times with sterile water, and then resuspended in sterile water at a final concentration of 10^9 colony-forming unit/ml (cfu/ml). The suspension was stored at 4° C. at least 1 d, then subcultured into YPDB to a final concentration of 10^6 cfu/ml. After 48 h incubation, cell suspension was examined under the microscope for single cell percentage. When the single cell percentage exceeded 80%, cells were collected and washed three times with water, then resuspended in water to a final concentration of 10^9 cfu/ml, and stored at 4° C. for no more than a month.
Two approaches were taken to determine the percentage of cells with germ tubes formed (GTF %). One way was to count the total cells at the start of incubation, and count the ungerminated cells after incubation, then calculate the GTF % as (1−ungerminated cells/total cells at 0 h)*100. Another way was to store the samples at 15° C. for 20 h after incubation, then count the germinated cells and total cells after disaggregation, then calculated the GTF % as (germinated cells/total cells after storage)*100. […] Therefore, for practical purposes, the GTF % was determined by the first method, that is, GTF %=(1−ungerminated cells/total cells at 0 h)*100, for the in vitro screening discussed herein.
A screening medium, containing 11 mM imidazole buffer, 3 m MMgSO4, and 2.6 mM N-acetyl-D-glucosamine (GlcNAc) has been used to study the effect of farnesol analogs on the germ tube formation of C. albicans. Here, the germ tube formation of C. albicans in modified screening media was assessed with various concentrations of imidazole buffer (10 mM, 30 mM, and 50 mM) and MgSO4 (0.5 mM, 1.5 mM, and 3 mM). […] It took 2 h to 3 h for the GTF % to reach above 80%. For practical purposes, the screening medium, containing 11 mM imidazole buffer, 0.5 m MMgSO4, and 2.6 mM N-acetyl-D-glucosamine (GlcNAc) was adopted for in vitro screening the quorum sensing inhibitory effect of farnesol compounds and botanicals. […]

Compound: C=CCCCCCCCC [1-Decene]
- GTF %control-GTF %sample (mean ± SD, n = 3) (0.1%): 0%
- GTF %control-GTF %sample (mean ± SD, n = 3) (0.2%): 35.2 ± 5.2 %

Compound: Cc1ccc(C(C)C)c(O)c1 [Thymol]
- GTF % (mean ± SEM, n = 3) (1 mM): 43.7 ± 5.2%

Compound: CC(C)=CCCC(C)=CCCC(C)=CCO [farnesol]
- GTF %control-GTF %sample (mean ± SD, n = 3) ((0.0022%)): 25.0 ± 4.1%
